In paper PMC8456950, “Structure‐Guided Design of G‐Protein‐Coupled Receptor Polypharmacology” (Angewandte Chemie (International Ed. in English), 2021):

Key:
D4R = molecular target: T1, D4R (Homo sapiens, UniProt P21917, DEL265-296); assay: D4R competition binding ([3H]-spiperone); conditions: for inhibition at 10 µM: 2 h, 10 µM compound, n=2, read-out: D4R % displacement at 10 µM; for Ki: mean±SEM of two experiments in duplicate, read-out: D4R binding affinity Ki
T1 sequence (P21917 with tags, fused parts or gaps DEL265-296): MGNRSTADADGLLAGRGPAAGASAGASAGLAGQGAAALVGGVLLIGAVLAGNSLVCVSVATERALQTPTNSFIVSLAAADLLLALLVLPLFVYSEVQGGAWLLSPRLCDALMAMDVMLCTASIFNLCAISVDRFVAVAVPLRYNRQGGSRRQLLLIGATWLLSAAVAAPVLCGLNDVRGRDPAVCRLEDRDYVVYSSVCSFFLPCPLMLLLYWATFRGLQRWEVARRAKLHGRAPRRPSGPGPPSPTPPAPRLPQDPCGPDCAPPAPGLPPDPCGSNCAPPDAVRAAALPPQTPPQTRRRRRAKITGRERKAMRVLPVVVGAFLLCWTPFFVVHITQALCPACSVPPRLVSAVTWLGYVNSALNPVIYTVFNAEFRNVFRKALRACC
Experimental: D4R competition binding experiments were carried out in polypropylene 96 -well plate s. Each well contained 35 µg of membranes from a CHO-D4R cell line (Perkin Elmer, RBHD42M400U A, protein concentration=14000 µg/ml), 1 nM [3H]-spiperone (68 Ci/mmol, 1 mCi/ml, Perkin Elmer NET1187001MC), and the compound studied. Non-specific binding was determined in the presence of 25 µM haloperidol (Sigma H1512). The reaction mixture (250 µl/well) was incubated at 27 °C for 120 min, after which 200 µL was transferred to GF/C 96-well plates (Millipore, Madrid, Spain) pretreated with 0.5% PEI and treated with binding buffer (50 mM Tris-HCl, 1 mM EDTA, 5 mM MgCl2, 5 mM KCl, 120 mM NaCl, pH=7.4). The samples were filtered and washed f our times with 250 µl wash buffer (50 mM Tris-HCl, 0.9% NaCl, pH=7.4) before measuring in a microplate beta scintillation counter (Microbeta Trilux, PerkinElmer, Madrid, Spain). Two independent experiments were carried out to calculate Ki values (n=2). […]

D3R = molecular target: T2, D3R (Homo sapiens, UniProt P35462); assay: D3R competition binding ([3H]-spiperone); conditions: mean±SEM of two experiments in duplicate; read-out: D3R binding affinity Ki
T2 construct: purchased Perkin Elmer ES-173M400UA
Experimental: samples were filtered and washed four times with 250 µl wash buffer (50 mM Tris-HCl, 0.9% NaCl, pH=7.4) before measuring in a microplate beta scintillation counter (Microbeta Trilux, PerkinElmer, Madrid, Spain). Three independent exp eriments were carried out to calculate Ki values (n=3).
Human A1AR competition binding experiments were carried out in multiscreen GF/C 96 -well plates (Millipore, Madrid, Spain) pretreated with assay buffer ( 20 mM Hepes, 100 mM NaCl, 10 mM MgCl2, 2 U/ml adeno sine deamina se, pH=7.4). Each well contained 5 µg of membranes from a CHO-A1AR cell line, 1 nM [3H]-DPCPX (137 Ci/mmol, 1 mCi/Ml, Perkin Elmer NET974001MC), and the compound studied. Non-specific binding was determined in the presence of R-PIA 10 µM (Sigma P4532). The reaction mixture (200 µl/well) was incubated at 25°C for 60 min. The samples were then filtered and washed four times with 250 µl wash buffer (20 mM Hepes, 100 mM NaCl, 10 mM MgCl2, pH=7.4) before measuring in a microplate beta scintillati on counter (Microbeta Trilux, PerkinElmer, Madrid, Spain). Two independent experiments were carried out to calculate K i values (n=2).
D3R competition binding experiments were carried out in polypropylene 96 -well plate s. Each well contained 2 µg of membranes from a D3R cell line (Perkin Elmer, ES-173M400UA, protein concentration=1000 µg/ml), 1 nM [3H]-spiperone (68 Ci/mmol, 1 mCi/ml, Perkin Elmer NET1187001MC), and the compound studied. Non-specific binding was determined in the presence of 1 µ M haloperidol (Sigma H1512). The reaction mixture (250 µl/well) was incubated at 25 °C for 60 min, after which 200 µL was transferred to GF/C 96-well plates (Millipore, Madrid, Spain) pretreated with 0. […]
D4R competition binding experiments were carried out in polypropylene 96 -well plate s. […] Non-specific binding was determined in the presence of 25 µM haloperidol (Sigma H1512). […]
H1R competition binding experiments were carried out in polypropylene 96-well plates. […] Non-specific binding was determined in the presence of 10 µM triprolidine (T6764, Sigma Aldrich). […]

T2 sequence (P35462 whole entry): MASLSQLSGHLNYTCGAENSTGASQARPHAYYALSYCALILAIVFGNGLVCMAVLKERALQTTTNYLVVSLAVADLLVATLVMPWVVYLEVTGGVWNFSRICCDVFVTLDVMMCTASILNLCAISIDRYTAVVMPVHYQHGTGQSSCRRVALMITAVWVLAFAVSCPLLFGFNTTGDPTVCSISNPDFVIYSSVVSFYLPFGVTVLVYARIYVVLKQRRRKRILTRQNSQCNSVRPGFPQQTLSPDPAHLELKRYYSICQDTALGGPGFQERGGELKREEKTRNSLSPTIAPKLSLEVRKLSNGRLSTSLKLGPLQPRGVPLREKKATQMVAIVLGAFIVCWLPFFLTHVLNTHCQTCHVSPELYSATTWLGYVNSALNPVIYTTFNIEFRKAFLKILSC

| Compound | inhibition at 10 µM (D4R) [%] | Ki (D3R) [nM] | Ki (D4R) [nM] |
| --- | --- | --- | --- |
| CCCN(CCCCC(=O)Nc1nc2c(Br)cccc2s1)C1Cc2ccccc2C1 [Compound 27] | 27 ± 4 | – | – |
| CCN(CCCCC(=O)Nc1nc2c(Br)cccc2s1)C1Cc2ccccc2C1 [Compound 22] | 19 ± 1 | 21 ± 6 | – |
| CCCN(CCCCC(=O)Nc1nc2c(OC)ccc(OC)c2s1)C1Cc2ccccc2C1 [Compound 30] | 19 ± 4 | 56 ± 7 | > 10000 |
| CCCN(CCCCC(=O)Nc1nc2c(OC)cccc2s1)C1Cc2ccccc2C1 [Compound 26] | – | 21 ± 2 | 700 ± 80 |
